Assay results reported in US5073493A, “Monoclonal antibody NKY13” (Ikuo Yamashina, priority 1987, dated 1991).

Tests used:
NS19-9 = experiment: Inhibition of NS19-9 binding by sugar chains (same test performed on NS19-9); conditions: read-out: 50% INHIBITION (μM) NS19-9
Protocol: (§1) Structure of sugar chains recognized by monoclonal antibody NKY13 was investigated on the basis of the inhibition of the binding of the NKY13 to G-50I by the following sugar chains according to the above method. The same test was performed on NS19-9.

[1] = target: binding of the NKY13 to G-50I; experiment: Inhibition of the binding of NKY13 to G-50I by sugar chains; design: species or system mouse; conditions: inhibition of binding of NKY13 to G-50I by the sugar chain
Protocol: Bovine serum albumin (1%) is added to wells of poly(vinyl chloride) on which, through the mediation of polylysine and glutaraldehyde, is immobilized mucin-type glycopeptide (G-50I) that is isolated from human intestinal cancer cells SW1116 or LS180. After allowing it to stand for 1 hr, the wells are washed, and then a monoclonal antibody NKY13 is added thereto and allowed to react overnight. After washing the wells, Protein A labelled with ^125 I is added, which is allowed to react for 2 hr. After washing the wells, the affinity of NKY13 is measured, taking as index the radioactivity of ^125 I combined with the well.
as §1

IC50 (NS19-9) [µM] | IC50 [1] [µM] | Structure (SMILES)
3550 | 320 | CC(=O)N[C@H]1[C@H](O[C@H]2[C@@H](O)[C@@H](CO)O[C@@H](O[C@H]3[C@H](O)[C@@H](O)C(O)O[C@@H]3CO)[C@@H]2O)O[C@H](CO)[C@@H](O)[C@@H]1O[C@@H]1O[C@H](CO)[C@H](O)[C@H](O[C@]2(C(=O)O)C[C@H](O)[C@@H](NC(C)=O)[C@H]([C@H](O)[C@H](O)CO)O2)[C@H]1O (stereo partly shown)
> 10000 | 9000 | O=C(CO)N[C@H]1[C@H]([C@H](O)[C@H](O)CO)OC(O)(C(=O)O)C[C@@H]1O (stereo partly shown) [NeuGc]
11.1 | 1.86 | CC(=O)N[C@H]1[C@H](O[C@H]2[C@@H](O)[C@@H](CO)O[C@@H](O[C@H]3[C@H](O)[C@@H](O)C(O)O[C@@H]3CO)[C@@H]2O)O[C@H](CO)[C@@H](O[C@@H]2O[C@@H](C)[C@@H](O)[C@@H](O)[C@@H]2O)[C@@H]1O[C@@H]1O[C@H](CO)[C@H](O)[C@H](O[C@]2(C(=O)O)C[C@H](O)[C@@H](NC(C)=O)[C@H]([C@H](O)[C@H](O)CO)O2)[C@H]1O (stereo partly shown)
3550 | 320 | CC(=O)N[C@H]1[C@H](O[C@H]2[C@@H](O)[C@@H](CO)O[C@@H](O[C@H]3[C@H](O)[C@@H](O)C(O)O[C@@H]3CO)[C@@H]2O)O[C@H](CO[C@]2(C(=O)O)C[C@H](O)[C@@H](NC(C)=O)[C@H]([C@H](O)[C@H](O)CO)O2)[C@@H](O)[C@@H]1O[C@@H]1O[C@H](CO)[C@H](O)[C@H](O[C@]2(C(=O)O)C[C@H](O)[C@@H](NC(C)=O)[C@H]([C@H](O)[C@H](O)CO)O2)[C@H]1O (stereo partly shown)
> 10000 | > 10000 | CC(=O)N[C@H]1[C@H](O[C@H]2[C@@H](O)[C@@H](CO)O[C@@H](O[C@H]3[C@H](O)[C@@H](O)C(O)O[C@@H]3CO)[C@@H]2O)O[C@H](CO)[C@@H](O[C@@H]2O[C@@H](C)[C@@H](O)[C@@H](O)[C@@H]2O)[C@@H]1O[C@@H]1O[C@H](CO)[C@H](O)[C@H](O)[C@H]1O[C@@H]1O[C@@H](C)[C@@H](O)[C@@H](O)[C@@H]1O (stereo partly shown)
> 10000 | 9000 | CC(=O)N[C@H]1[C@H]([C@H](O)[C@H](O)CO)OC(O)(C(=O)O)C[C@@H]1O (stereo partly shown) [NeuAc]
> 10000 | > 10000 | CC(=O)N[C@H]1[C@H](O[C@H]2[C@@H](O)[C@@H](CO)O[C@@H](O[C@H]3[C@H](O)[C@@H](O)C(O)O[C@@H]3CO)[C@@H]2O)O[C@H](CO)[C@@H](O[C@@H]2O[C@H](CO)[C@H](O)[C@H](O)[C@H]2O)[C@@H]1O[C@@H]1O[C@@H](C)[C@@H](O)[C@@H](O)[C@@H]1O (stereo partly shown)
2320 | > 10000 | CC(=O)N[C@H]1[C@H](O[C@H]2[C@@H](O)[C@@H](CO)O[C@@H](O[C@H]3[C@H](O)[C@@H](O)C(O)O[C@@H]3CO)[C@@H]2O)O[C@H](CO)[C@@H](O[C@@H]2O[C@@H](C)[C@@H](O)[C@@H](O)[C@@H]2O)[C@@H]1O[C@@H]1O[C@H](CO)[C@H](O)[C@H](O)[C@H]1O (stereo partly shown)
> 10000 | > 10000 | CC(=O)N[C@H]1[C@H](O[C@H]2[C@@H](O)[C@@H](CO)O[C@@H](O[C@H]3[C@H](O)[C@@H](O)C(O)O[C@@H]3CO)[C@@H]2O)O[C@H](CO[C@]2(C(=O)O)C[C@H](O)[C@@H](NC(C)=O)[C@H]([C@H](O)[C@H](O)CO)O2)[C@@H](O)[C@@H]1O[C@@H]1O[C@H](CO)[C@H](O)[C@H](O)[C@H]1O (stereo partly shown)
> 10000 | > 10000 | CC(=O)N[C@H]1[C@H](O[C@H]2[C@@H](O)[C@@H](CO)O[C@@H](O[C@H]3[C@H](O)[C@@H](O)C(O)O[C@@H]3CO)[C@@H]2O)O[C@H](CO)[C@@H](O)[C@@H]1O[C@@H]1O[C@H](CO)[C@H](O)[C@H](O)[C@H]1O (stereo partly shown)
14000 | > 10000 | C[C@@H]1OC(O)[C@@H](O)[C@H](O)[C@@H]1O (stereo partly drawn) [L-Fucose]
